Measured values reported in PMC9583092 (ACS Omega, 2022).
Where “and” joins values, the source holds several entries; their conditions need not be identical. Equal values may be shown once. Read-outs that look alike come from different tables or passages of the source. Non-standard residues stand in square brackets, D forms with d. Residues, ends and D or L forms follow the SMILES beside them. *: point of attachment. Gly(N(CH2)2(3-indolyl)) = O=C(O)CNCCc1c[nH]c2ccccc12; Gly(Nα-4-Cl-benzyl) = O=C(O)CNCc1ccc(Cl)cc1; N(4-Br-benzyl)Gly = O=C(O)CNCc1ccc(Br)cc1; N(tridecyl)Gly = CCCCCCCCCCCCCNCC(=O)O; N(4-F-Bzl)Gly = O=C(O)CNCc1ccc(F)cc1; NBzl(4-I)Gly = O=C(O)CNCc1ccc(I)cc1; Gly(N-2-aminoethyl) = NCCNCC(=O)O; NFurfurylGly = O=C(O)CNCc1ccco1; X1 = CCCCCCCCN(CCCCCCCC)CC(=O)*; Gly(N-cHex) = O=C(O)CNC1CCCCC1; X2 = CCCCCCN(CCCCCC)CC(=O)*; Nphe = O=C(O)CNCc1ccccc1; Nlys = NCCCCNCC(=O)O

Assays:
[1] = system: C. neoformans; assay: MIC determination, broth microdilution; format: cell-based, Cryptococcus neoformans; settings: RPMI-MOPS, 72 h at 35 °C, no visual growth, twofold dilutions 200–1.56 μg/mL, biological triplicate
[2] = system: C. albicans; settings: cited from earlier work
[3] = system: HepG2 hepatocellular carcinoma cells; settings: human liver cells; RMG8-8 parameters from previously published results; cited from earlier work
[4] = system: fungi; settings: killed fungi rapidly; cited from earlier work
[5] = result in words; cited from earlier work
[6] = system: C. neoformans; settings: RMG8-8 parameters from previously published results; cited from earlier work
[7] = calculated distribution coefficient at pH 7.4; RMG8-8 parameters from previously published results; cited from earlier work

SMILES	C. neoformans MIC [1] [µg/mL]	other results
CCCCCCCCCCCCCNCC(=O)N(CC(=O)N(CCCC[N+](C)(C)C)CC(=O)N(CC[N+](C)(C)C)CC(=O)N(CC(N)=O)C1CCCCC1)C1CCCCC1 [Compound 1]	12.5	–
CCCCCCCCCCCCCNCC(=O)N(CC(=O)N(CCCCN)CC(=O)N(CCCCN)CC(=O)N(CC(N)=O)C1CCCCC1)C1CCCCC1 [Compound 2] (H-[N(tridecyl)Gly][Gly(N-cHex)][Nlys][Nlys][Gly(N-cHex)]-NH2)	3.13	–
CCCCCCN(CCCCCC)CC(=O)N(CC(=O)N(CCCCN)CC(=O)N(CCN)CC(=O)N(CC(N)=O)C1CCCCC1)C1CCCCC1 [Compound 6] (X2-[Gly(N-cHex)][Nlys][Gly(N-2-aminoethyl)][Gly(N-cHex)]-NH2)	100	–
CCCCCCCCN(CCCCCCCC)CC(=O)N(CC(=O)N(CCCCN)CC(=O)N(CCN)CC(=O)N(CC(N)=O)C1CCCCC1)C1CCCCC1 [Compound 7] (X1-[Gly(N-cHex)][Nlys][Gly(N-2-aminoethyl)][Gly(N-cHex)]-NH2)	6.25	–
CCCCCCCCCCCCCNCC(=O)N(CC(=O)N(CCCCN)CC(=O)N(CCN)CC(=O)N(CC(N)=O)Cc1ccccc1)Cc1ccccc1 [Compound 15] (H-[N(tridecyl)Gly][Nphe][Nlys][Gly(N-2-aminoethyl)][Nphe]-NH2)	1.56 to 3.13	–
CCCCCCCCCCCCCNCC(=O)N(CC(=O)N(CCCCN)CC(=O)N(CCN)CC(=O)N(CC(N)=O)Cc1ccc(F)cc1)Cc1ccc(F)cc1 [Compound 17] (H-[N(tridecyl)Gly][N(4-F-Bzl)Gly][Nlys][Gly(N-2-aminoethyl)][N(4-F-Bzl)Gly]-NH2)	1.56 to 3.13	–
CCCCCCCCCCCCCNCC(=O)N(CC(=O)N(CCCCN)CC(=O)N(CCN)CC(=O)N(CC(N)=O)Cc1ccc(Cl)cc1)Cc1ccc(Cl)cc1 [Compound 18] (H-[N(tridecyl)Gly][Gly(Nα-4-Cl-benzyl)][Nlys][Gly(N-2-aminoethyl)][Gly(Nα-4-Cl-benzyl)]-NH2)	3.13	–
CCCCCCCCCCCCCNCC(=O)N(CC(=O)N(CCCCN)CC(=O)N(CCN)CC(=O)N(CC(N)=O)Cc1ccc(Br)cc1)Cc1ccc(Br)cc1 [Compound 19] (H-[N(tridecyl)Gly][N(4-Br-benzyl)Gly][Nlys][Gly(N-2-aminoethyl)][N(4-Br-benzyl)Gly]-NH2)	3.13	–
CCCCCCCCCCCCCNCC(=O)N(CC(=O)N(CCCCN)CC(=O)N(CCN)CC(=O)N(CC(N)=O)Cc1ccc(I)cc1)Cc1ccc(I)cc1 [Compound 20] (H-[N(tridecyl)Gly][NBzl(4-I)Gly][Nlys][Gly(N-2-aminoethyl)][NBzl(4-I)Gly]-NH2)	6.25	–
CCCCCCCCCCCCCNCC(=O)N(CCc1c[nH]c2ccccc12)CC(=O)N(CCCCN)CC(=O)N(CCN)CC(=O)N(CCc1c[nH]c2ccccc12)CC(N)=O [Compound 23] (H-[N(tridecyl)Gly][Gly(N(CH2)2(3-indolyl))][Nlys][Gly(N-2-aminoethyl)][Gly(N(CH2)2(3-indolyl))]-NH2)	1.56 to 3.13	–
CCCCCCCCCCCCCNCC(=O)N(CC(=O)N(CCCCN)CC(=O)N(CCN)CC(=O)N(CC(N)=O)Cc1ccco1)Cc1ccco1 [Compound 24] (H-[N(tridecyl)Gly][NFurfurylGly][Nlys][Gly(N-2-aminoethyl)][NFurfurylGly]-NH2)	3.13 to 6.25	–
CCCCCCCCCCCCCNCC(=O)N(CC(=O)N(CCCCN)CC(=O)N(CCN)CC(=O)N(CC(N)=O)C1CCCCC1)C1CCCCC1 [RMG8-8] (H-[N(tridecyl)Gly][Gly(N-cHex)][Nlys][Gly(N-2-aminoethyl)][Gly(N-cHex)]-NH2)	–	C. albicans MIC [2]: 25 µg/mL; HepG2 TD50 [3]: 189 µg/mL and 189 ± 43 µg/mL; t1/2 of fungal killing [4]: 6.5 min; proteolytic stability [5]: proteolytically stable; C. neoformans MIC [6]: 1.56 µg/mL; cLogD7.4 [7]: –2.38
